Test results reported in patent publication US4326054A, “Cleomycins and process for producing same” (Zaidan Hojin Biseibutsu Kagaku Kenkyu Kai, priority 1979, dated 1982).

test system: Mycobacterium smegmatis ATCC 607; experiment: Antimicrobial activity, agar plate-cylinder method, bleomycin A2 as standard (1,000 u/mg); assay type: cell-based; settings: Table 5; copper-free form; relative to bleomycin A2 = 1,000 u/mg
Experimental: Typical examples of the biological activities measured on cleomycins (copper-free form) are illustrated below.
Comparison was made with the relevant antibiotics bleomycins. The relative antimicrobial potency (u/mg) against Mycobacterium smegmatis ATCC 607 was measured by agar plate-cylinder method using bleomycin A2 as a standard (1,000 u/mg).
(Note: The antimicrobial potency was determined by taking bleomycin
A2 as 1,000 μ/mg and using Mycobacterium smegmatis ATCC 607 as a
test bacterium. Herinafter, the same was applied.)

| Compound | Antimicrobiral potency |
| --- | --- |
| Cc1c(N)nc(C(CC(N)=O)NCC(N)C(N)=O)nc1C(=O)NC(C(=O)NC(C)C(O)C(C)C(=O)NC(C(=O)NCCc1nc(-c2nc(C(=O)NCCCNCc3ccccc3)cs2)cs1)C1(O)CC1)C(OC1OC(CO)C(O)C(O)C1OC1OC(CO)C(O)C(OC(N)=O)C1O)c1cnc[nH]1 (stereo not drawn) [compound 32, 3-benzylaminopropylaminocleomycin] | 6.977 u/mg |
| Cc1c(N)nc(C(CC(N)=O)NCC(N)C(N)=O)nc1C(=O)NC(C(=O)NC(C)C(O)C(C)C(=O)NC(C(=O)NCCc1nc(-c2nc(C(=O)NCCCNCCCN)cs2)cs1)C1(O)CC1)C(OC1OC(CO)C(O)C(O)C1OC1OC(CO)C(O)C(OC(N)=O)C1O)c1cnc[nH]1 (stereo not drawn) [compound 43, 3-(3-aminopropylamino)propylaminocleomycin] | 2,790 u/mg |
| Cc1c(N)nc(C(CC(N)=O)NCC(N)C(N)=O)nc1C(=O)NC(C(=O)NC(C)C(O)C(C)C(=O)NC(C(=O)NCCc1nc(-c2nc(C(=O)NCCCN)cs2)cs1)C1(O)CC1)C(OC1OC(CO)C(O)C(O)C1OC1OC(CO)C(O)C(OC(N)=O)C1O)c1cnc[nH]1 (stereo not drawn) [compound 4, 3-aminopropylaminocleomycin] | 2,150 u/mg |
| Cc1c(N)nc(C(CC(N)=O)NCC(N)C(N)=O)nc1C(=O)NC(C(=O)NC(C)C(O)C(C)C(=O)NC(C(=O)NCCc1nc(-c2nc(C(=O)NCCCCN)cs2)cs1)C1(O)CC1)C(OC1OC(CO)C(O)C(O)C1OC1OC(CO)C(O)C(OC(N)=O)C1O)c1cnc[nH]1 (stereo not drawn) [compound 5, 4-aminobutylaminocleomycin] | 1,935 u/mg |
| Cc1c(N)nc(C(CC(N)=O)NCC(N)C(N)=O)nc1C(=O)NC(C(=O)NC(C)C(O)C(C)C(=O)NC(C(=O)NCCc1nc(-c2nc(C(=O)NCCCN(C)CCCNCc3ccccc3)cs2)cs1)C1(O)CC1)C(OC1OC(CO)C(O)C(O)C1OC1OC(CO)C(O)C(OC(N)=O)C1O)c1cnc[nH]1 (stereo not drawn) [compound 46, 3-[N-methyl-N-(3-benzylaminopropyl)]aminopropylcleomycin] | 7,660 u/mg |
| Cc1c(N)nc(C(CC(N)=O)NCC(N)C(N)=O)nc1C(=O)NC(C(=O)NC(C)C(O)C(C)C(=O)NC(C(=O)NCCc1nc(-c2nc(C(=O)NCCCNCCCN3CCOCC3)cs2)cs1)C1(O)CC1)C(OC1OC(CO)C(O)C(O)C1OC1OC(CO)C(O)C(OC(N)=O)C1O)c1cnc[nH]1 (stereo not drawn) [compound 28, 3-(3-morpholinopropylamino)propylaminocleomycin] | 1,715 u/mg |
| Cc1c(N)nc(C(CC(N)=O)NCC(N)C(N)=O)nc1C(=O)NC(C(=O)NC(C)C(O)C(C)C(=O)NC(C(=O)NCCc1nc(-c2nc(C(=O)NCCCNCCCCCCO)cs2)cs1)C1(O)CC1)C(OC1OC(CO)C(O)C(O)C1OC1OC(CO)C(O)C(OC(N)=O)C1O)c1cnc[nH]1 (stereo not drawn) [compound 42, 3-(6-hydroxyhexylamino)propylaminocleomycin] | 4,806 u/mg |
| Cc1c(N)nc(C(CC(N)=O)NCC(N)C(N)=O)nc1C(=O)NC(C(=O)NC(C)C(O)C(C)C(=O)NC(C(=O)NCCc1nc(-c2nc(C(=O)NCCCNCCCCCCN)cs2)cs1)C1(O)CC1)C(OC1OC(CO)C(O)C(O)C1OC1OC(CO)C(O)C(OC(N)=O)C1O)c1cnc[nH]1 (stereo not drawn) [compound 44, 3-(6-aminohexylamino)propylaminocleomycin] | 3,520 u/mg |
| Cc1c(N)nc(C(CC(N)=O)NCC(N)C(N)=O)nc1C(=O)NC(C(=O)NC(C)C(O)C(C)C(=O)NC(C(=O)NCCc1nc(-c2nc(C(=O)NCCCNCCCN(C)C)cs2)cs1)C1(O)CC1)C(OC1OC(CO)C(O)C(O)C1OC1OC(CO)C(O)C(OC(N)=O)C1O)c1cnc[nH]1 (stereo not drawn) [compound 19, 3-[3-(N,N-dimethylamino)propyl]propylaminocleomycin] | 2,004 u/mg |
| Cc1c(N)nc(C(CC(N)=O)NCC(N)C(N)=O)nc1C(=O)NC(C(=O)NC(C)C(O)C(C)C(=O)NC(C(=O)NCCc1nc(-c2nc(C(=O)NCCCNCCCN3CCCC3)cs2)cs1)C1(O)CC1)C(OC1OC(CO)C(O)C(O)C1OC1OC(CO)C(O)C(OC(N)=O)C1O)c1cnc[nH]1 (stereo not drawn) [compound 26, 3-[3-(1-pyrrolidinyl)propylamino]propylaminocleomycin] | 3,590 u/mg |
| Cc1c(N)nc(C(CC(N)=O)NCC(N)C(N)=O)nc1C(=O)NC(C(=O)NC(C)C(O)C(C)C(=O)NC(C(=O)NCCc1nc(-c2nc(C(=O)NCCc3cnc[nH]3)cs2)cs1)C1(O)CC1)C(OC1OC(CO)C(O)C(O)C1OC1OC(CO)C(O)C(OC(N)=O)C1O)c1cnc[nH]1 (stereo not drawn) [compound 40, 2-(4-imidazolyl)ethylaminocleomycin] | 1,147 u/mg |
| Cc1c(N)nc(C(CC(N)=O)NCC(N)C(N)=O)nc1C(=O)NC(C(=O)NC(C)C(O)C(C)C(=O)NC(C(=O)NCCc1nc(-c2nc(C(=O)NCCNCC(C)O)cs2)cs1)C1(O)CC1)C(OC1OC(CO)C(O)C(O)C1OC1OC(CO)C(O)C(OC(N)=O)C1O)c1cnc[nH]1 (stereo not drawn) [compound 12, 2-(2-hydroxypropylamino)ethylaminocleomycin] | 2,280 u/mg |
| Cc1c(N)nc(C(CC(N)=O)NCC(N)C(N)=O)nc1C(=O)NC(C(=O)NC(C)C(O)C(C)C(=O)NC(C(=O)NCCc1nc(-c2nc(C(=O)NCCCNCCCNC(C)c3ccccc3)cs2)cs1)C1(O)CC1)C(OC1OC(CO)C(O)C(O)C1OC1OC(CO)C(O)C(OC(N)=O)C1O)c1cnc[nH]1 (stereo not drawn) [compound 14, 3-[3-(1-phenylethylamino)propylamino]propylaminocleomycin] | 11,420 u/mg |
| Cc1c(N)nc(C(CC(N)=O)NCC(N)C(N)=O)nc1C(=O)NC(C(=O)NC(C)C(O)C(C)C(=O)NC(C(=O)NCCc1nc(-c2nc(C(=O)NCCCNCCCNCc3ccccc3)cs2)cs1)C1(O)CC1)C(OC1OC(CO)C(O)C(O)C1OC1OC(CO)C(O)C(OC(N)=O)C1O)c1cnc[nH]1 (stereo not drawn) [compound 45, 3-(3-benzylaminopropylamino)propylaminocleomycin] | 8,400 u/mg |
| Cc1c(N)nc(C(CC(N)=O)NCC(N)C(N)=O)nc1C(=O)NC(C(=O)NC(C)C(O)C(C)C(=O)NC(C(=O)NCCc1nc(-c2nc(C(=O)NCCCN3CCOCC3)cs2)cs1)C1(O)CC1)C(OC1OC(CO)C(O)C(O)C1OC1OC(CO)C(O)C(OC(N)=O)C1O)c1cnc[nH]1 (stereo not drawn) [compound 24, 3-morpholinopropylaminocleomycin] | 800 u/mg |
| Cc1c(N)nc(C(CC(N)=O)NCC(N)C(N)=O)nc1C(=O)NC(C(=O)NC(C)C(O)C(C)C(=O)NC(C(=O)NCCc1nc(-c2nc(C(=O)NCCC[N+](C)(C)C)cs2)cs1)C1(O)CC1)C(OC1OC(CO)C(O)C(O)C1OC1OC(CO)C(O)C(OC(N)=O)C1O)c1cnc[nH]1 (stereo not drawn) [compound 18, 3-(N,N,N-trimethylamino)propylaminocleomycin] | 878 u/mg |
| Cc1c(N)nc(C(CC(N)=O)NCC(N)C(N)=O)nc1C(=O)NC(C(=O)NC(C)C(O)C(C)C(=O)NC(C(=O)NCCc1nc(-c2nc(C(=O)NCCCN3CCNCC3)cs2)cs1)C1(O)CC1)C(OC1OC(CO)C(O)C(O)C1OC1OC(CO)C(O)C(OC(N)=O)C1O)c1cnc[nH]1 (stereo not drawn) [compound 13, 3-(1-piperazinyl)propylaminocleomycin] | 980 u/mg |
| Cc1c(N)nc(C(CC(N)=O)NCC(N)C(N)=O)nc1C(=O)NC(C(=O)NC(C)C(O)C(C)C(=O)NC(C(=O)NCCc1nc(-c2nc(C(=O)NCCCNCCCCN)cs2)cs1)C1(O)CC1)C(OC1OC(CO)C(O)C(O)C1OC1OC(CO)C(O)C(OC(N)=O)C1O)c1cnc[nH]1 (stereo not drawn) [compound 6, 3-(4-aminobutylamino)propylaminocleomycin] | 3,575 u/mg |
